Experimental data reported in ChEMBL document CHEMBL4261619, “Sentulic acid isolated from Sandoricum koetjape Merr attenuates lipopolysaccharide and interferon gamma co-stimulated nitric oxide production in murine macrophage RAW264 cells” (Bioorg Med Chem Lett, 2018).
The source made the active and inactive calls. The rule behind the calls is not given here.

Legend:
Assay type in all cases: cell-based
[1] = target: T1, Toll-like receptor 4 (Mus musculus) (UniProt Q9QUK6); assay: Inhibition of LPS binding to TLR4 in IFNgamma-stimulated mouse RAW264.7 cells assessed as reduction in COX2 expression at 100 uM by Western blot analysis
T1 sequence (whole entry): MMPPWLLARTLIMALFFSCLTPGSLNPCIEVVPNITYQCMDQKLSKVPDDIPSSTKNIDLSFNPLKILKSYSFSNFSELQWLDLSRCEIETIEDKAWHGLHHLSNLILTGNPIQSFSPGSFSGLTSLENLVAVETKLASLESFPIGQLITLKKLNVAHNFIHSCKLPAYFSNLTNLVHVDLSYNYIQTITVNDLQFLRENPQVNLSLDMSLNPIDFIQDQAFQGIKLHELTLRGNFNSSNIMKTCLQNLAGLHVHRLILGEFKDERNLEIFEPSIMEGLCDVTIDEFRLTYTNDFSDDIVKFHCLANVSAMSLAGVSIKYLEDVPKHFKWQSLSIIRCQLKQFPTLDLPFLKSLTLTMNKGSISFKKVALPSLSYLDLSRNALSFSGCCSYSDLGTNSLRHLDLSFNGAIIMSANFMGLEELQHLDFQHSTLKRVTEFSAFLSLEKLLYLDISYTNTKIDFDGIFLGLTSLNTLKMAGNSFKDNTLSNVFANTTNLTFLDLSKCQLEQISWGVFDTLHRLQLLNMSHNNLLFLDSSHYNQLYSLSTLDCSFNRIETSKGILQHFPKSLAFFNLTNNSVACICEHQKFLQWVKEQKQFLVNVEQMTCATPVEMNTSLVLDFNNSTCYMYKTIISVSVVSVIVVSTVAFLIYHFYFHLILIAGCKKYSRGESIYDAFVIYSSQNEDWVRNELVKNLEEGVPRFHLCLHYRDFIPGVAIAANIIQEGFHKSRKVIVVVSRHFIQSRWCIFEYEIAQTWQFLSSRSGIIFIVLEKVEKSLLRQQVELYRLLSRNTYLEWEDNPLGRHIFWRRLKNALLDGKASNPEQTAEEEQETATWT

[2] = target: T1, Toll-like receptor 4 (Mus musculus); assay: Inhibition of LPS binding to TLR4 in IFNgamma-stimulated mouse RAW264.7 cells assessed as suppression of IL6 mRNA expression at 100 uM by qRT-PCR analysis
[3] = target: T1, Toll-like receptor 4 (Mus musculus); assay: Inhibition of LPS binding to TLR4 in IFNgamma-stimulated mouse RAW264.7 cells assessed as suppression of IL-12 mRNA expression at 100 uM by qRT-PCR analysis
[4] = target: T1, Toll-like receptor 4 (Mus musculus); assay: Inhibition of LPS binding to TLR4 in IFNgamma-stimulated mouse RAW264.7 cells assessed as effect on ratio of phosphorylated JNK to total JNK at 100 uM measured after 60 mins by Western blot analysis relative to beta-actin (reference value: 1.4)
[5] = target: T1, Toll-like receptor 4 (Mus musculus); assay: Inhibition of LPS binding to TLR4 in IFNgamma-stimulated mouse RAW264.7 cells assessed as effect on ratio of phosphorylated NFkappaB to total NFkappaB at 100 uM measured after 15 mins by Western blot analysis relative to beta-actin (reference value: 4.7)
RAW264.7 = assay: Inhibition of IFNgamma binding to IFNGR in LPS-stimulated mouse RAW264.7 cells assessed as effect on ratio of phosphorylated Stat1 to total Stat1 at 100 uM measured after 60 mins by Western blot analysis relative to beta-actin (reference value: 4.1)
[6] = target: T1, Toll-like receptor 4 (Mus musculus); assay: Displacement of Alexa fluor 488-conjugated LPS from TLR4 in mouse RAW264.7 cells at 100 uM pretreated for 2 hrs followed by Alexa fluor 488-conjugated LPS addition and measured after 30 mins by Hoechst 33342 staining based assay relative to control

With C=C(C)[C@@H]1CC[C@]2(C)[C@H](CC=C3[C@@H]4CC(C)(C)CC[C@]4(C)CC[C@]32C(=O)O)[C@@]1(C)CCC(=O)O the inhibition [1] was “inactive”, the inhibition [2] was “Active” and the inhibition [3] was “Active”. For the same compound, the fold change (FC) [4] was 1.1, the fold change (FC) [5] was 2.9 and the fold change (FC) (RAW264.7) was 1.8. For the same compound, the inhibition [6] was 43%.
